Species on record: Rattus norvegicus
Test: Open TG-GATES - Regimen: Daily Repeat
Format: toxicity, organism-based, Sprague-Dawley
Parameters: regimen Daily Repeat, gender Male, age 6 weeks
Conditions: in vivo, po, route gavage; for Bas / Eos / Fbg / Hb / MCH / MCHC / MCV / Mono / Neu / Plat / RBC / Ret / WBC / APTT / Ht / Lym / PT: tissue Blood; for KIDNEY_L / KIDNEY_R / KIDNEY_TOTAL: tissue Kidney; for LIVER: tissue Liver; for ALP / ALT / AST / BUN / CRE / Ca / DBIL / GLC / IP / K / LDH / Na / PL / RALB / TBIL / TC / TP / gamma-GTP / TG: tissue Plasma
[1] = 0 mg/kg, 72 h, dose level Control, time 3 day
[2] = 0 mg/kg, […], dose level Control, time 7 day
[3] = 0 mg/kg, […], dose level Control, time 14 day
[4] = 0 mg/kg, […], dose level Control, time 28 day
[5] = 100 mg/kg, 72 h, dose level Low, time 3 day
[6] = 100 mg/kg, […], dose level Low, time 7 day
[7] = 100 mg/kg, […], dose level Low, time 14 day
[8] = 100 mg/kg, […], dose level Low, time 28 day

## O=C(O)c1cn(C2CC2)c2cc(N3CCNCC3)c(F)cc2c1=O [CIPROFLOXACIN]
[1]
  TERMINAL_BW: 198.1 g
  Bas: 0%
  Eos: 1.2%
  Fbg: 228 mg/dL
  Hb: 13.2 g/dL
  MCH: 22.2 pg
  MCHC: 33.5%
  MCV: 66.2 fL
  Mono: 7.6%
  Neu: 12%
  Plat: 99.9 x10_4/uL
  RBC: 595 x10_4/ul
  Ret: 8.5%
  WBC: 105.1 x10_2/uL
  KIDNEY_L: 0.9 g
  KIDNEY_R: 0.9 g
  KIDNEY_TOTAL: 1.8 g
  LIVER: 9.9 g
  ALP: 993.2 IU/L
  ALT: 38.8 IU/L
  AST: 66 IU/L
  BUN: 17.2 mg/dL
  CRE: 0.5 mg/dL
  Ca: 11.4 mg/dL
  DBIL: 0.002 mg/dL
  GLC: 182 mg/dL
  IP: 7.9 mg/dL
  K: 5.1 meq/L
  LDH: 88.4 IU/L
  Na: 139.4 meq/L
  PL: 157 mg/dL
  RALB: 4 g/dL
  TBIL: 0.3 mg/dL
  TC: 84 mg/dL
  TP: 5.9 g/dL
  gamma-GTP: 1.8 IU/L
[2]
  TERMINAL_BW: 237.8 g
  APTT: 16.9 s
  Bas: 0%
  Eos: 0.8%
  Fbg: 230.2 mg/dL
  Hb: 12.6 g/dL
  Ht: 39.6%
  Lym: 82.2%
  MCH: 20.8 pg
  MCHC: 31.8%
  MCV: 65.5 fL
  Mono: 7%
  Neu: 10%
  PT: 11.9 s
  Plat: 101.9 x10_4/uL
  RBC: 605.2 x10_4/ul
  Ret: 6.9%
  WBC: 121.2 x10_2/uL
  KIDNEY_L: 1.1 g
  KIDNEY_R: 1.1 g
  KIDNEY_TOTAL: 2.1 g
  LIVER: 11.7 g
  ALP: 938.8 IU/L
  ALT: 31.6 IU/L
  AST: 61.8 IU/L
  BUN: 19.6 mg/dL
  CRE: 0.5 mg/dL
  Ca: 11.3 mg/dL
  DBIL: 0.01 mg/dL
  GLC: 186.8 mg/dL
  IP: 8.6 mg/dL
  K: 5 meq/L
  LDH: 67 IU/L
  Na: 140.6 meq/L
  PL: 158.4 mg/dL
  RALB: 3.9 g/dL
  TBIL: 0.3 mg/dL
  TC: 90.2 mg/dL
  TG: 93.6 mg/dL
  TP: 5.7 g/dL
  gamma-GTP: 1.2 IU/L
[3]
  TERMINAL_BW: 285 g
  APTT: 16.4 s
  Bas: 0%
  Eos: 1%
  Fbg: 250.2 mg/dL
  Hb: 14 g/dL
  Ht: 42.3%
  MCH: 21 pg
  MCHC: 33.1%
  MCV: 63.3 fL
  Mono: 4.4%
  Neu: 11%
  PT: 9.8 s
  Plat: 111.2 x10_4/uL
  RBC: 669.4 x10_4/ul
  Ret: 5.7%
  WBC: 131.2 x10_2/uL
  KIDNEY_L: 1.2 g
  KIDNEY_R: 1.2 g
  KIDNEY_TOTAL: 2.4 g
  LIVER: 13.3 g
  ALP: 844.4 IU/L
  ALT: 31.4 IU/L
  AST: 58.4 IU/L
  BUN: 18.8 mg/dL
  CRE: 0.6 mg/dL
  DBIL: 0.006 mg/dL
  GLC: 185.6 mg/dL
  IP: 7.9 mg/dL
  K: 4.7 meq/L
  LDH: 80.6 IU/L
  Na: 138.8 meq/L
  PL: 172.8 mg/dL
  RALB: 4.1 g/dL
  TBIL: 0.2 mg/dL
  TC: 82.2 mg/dL
  TG: 150.6 mg/dL
  TP: 6.3 g/dL
  gamma-GTP: 1.2 IU/L
[4]
  TERMINAL_BW: 358.5 g
  APTT: 17.2 s
  Bas: 0%
  Eos: 1%
  Fbg: 235.2 mg/dL
  Hb: 14.8 g/dL
  Ht: 44%
  MCH: 19.4 pg
  MCHC: 33.6%
  MCV: 57.8 fL
  Mono: 3.4%
  Neu: 11%
  PT: 11.3 s
  Plat: 107.5 x10_4/uL
  RBC: 762.2 x10_4/ul
  Ret: 2.8%
  WBC: 132.8 x10_2/uL
  KIDNEY_L: 1.3 g
  KIDNEY_R: 1.3 g
  KIDNEY_TOTAL: 2.5 g
  ALP: 566.6 IU/L
  ALT: 28.8 IU/L
  AST: 57.6 IU/L
  BUN: 18.8 mg/dL
  CRE: 0.4 mg/dL
  Ca: 10.7 mg/dL
  DBIL: 0.048 mg/dL
  GLC: 195.6 mg/dL
  IP: 7 mg/dL
  K: 4.3 meq/L
  LDH: 94.4 IU/L
  Na: 140.2 meq/L
  PL: 150.6 mg/dL
  RALB: 4.1 g/dL
  TBIL: 0.3 mg/dL
  TC: 75.4 mg/dL
  TG: 126.4 mg/dL
  TP: 6.6 g/dL
  gamma-GTP: 1.4 IU/L
[5]
  TERMINAL_BW: 197.9 g
  APTT: 16.8 s
  Bas: 0%
  Eos: 1%
  Fbg: 236.3 mg/dL
  Hb: 13.2 g/dL
  Ht: 39.6%
  MCV: 63.9 fL
  Mono: 6.2%
  Neu: 13%
  Plat: 90 x10_4/uL
  RBC: 621.4 x10_4/ul
  Ret: 6.4%
  WBC: 94.6 x10_2/uL
  KIDNEY_L: 0.9 g
  KIDNEY_R: 0.9 g
  KIDNEY_TOTAL: 1.8 g
  LIVER: 8.9 g
  ALP: 806.8 IU/L
  ALT: 44.4 IU/L
  AST: 64 IU/L
  CRE: 0.5 mg/dL
  DBIL: 0.012 mg/dL
  GLC: 182 mg/dL
  IP: 8.4 mg/dL
  K: 5.3 meq/L
  LDH: 83.2 IU/L
  Na: 139 meq/L
  PL: 140.6 mg/dL
  RALB: 3.8 g/dL
  TBIL: 0.3 mg/dL
  TC: 78.6 mg/dL
  TG: 76.6 mg/dL
  TP: 5.6 g/dL
  gamma-GTP: 1.6 IU/L
[6]
  TERMINAL_BW: 227.7 g
  Bas: 0%
  Eos: 0.8%
  Fbg: 221.6 mg/dL
  Hb: 12.9 g/dL
  Ht: 38.6%
  Lym: 80%
  MCH: 21.2 pg
  MCV: 63.8 fL
  Mono: 5.8%
  Neu: 13.8%
  Plat: 94 x10_4/uL
  RBC: 605.6 x10_4/ul
  Ret: 6.4%
  WBC: 126.8 x10_2/uL
  KIDNEY_L: 1 g
  KIDNEY_R: 1 g
  KIDNEY_TOTAL: 2.1 g
  LIVER: 10.7 g
  ALP: 932.4 IU/L
  ALT: 37.2 IU/L
  AST: 65.8 IU/L
  BUN: 18.2 mg/dL
  CRE: 0.5 mg/dL
  Ca: 11.4 mg/dL
  DBIL: 0 mg/dL
  GLC: 184 mg/dL
  IP: 8.4 mg/dL
  K: 4.9 meq/L
  LDH: 56 IU/L
  Na: 139.8 meq/L
  PL: 149.8 mg/dL
  RALB: 3.9 g/dL
  TBIL: 0.3 mg/dL
  TG: 74.8 mg/dL
  TP: 5.8 g/dL
  gamma-GTP: 1.6 IU/L
[7]
  TERMINAL_BW: 280.3 g
  APTT: 16.3 s
  Bas: 0%
  Eos: 0.8%
  Fbg: 243.6 mg/dL
  Hb: 14 g/dL
  Ht: 41.8%
  Lym: 85.8%
  MCHC: 33.4%
  MCV: 61.8 fL
  Mono: 5.4%
  Neu: 8.2%
  PT: 10.2 s
  Plat: 102.2 x10_4/uL
  RBC: 678.2 x10_4/ul
  Ret: 6.3%
  WBC: 155.4 x10_2/uL
  KIDNEY_L: 1.1 g
  KIDNEY_R: 1.1 g
  KIDNEY_TOTAL: 2.3 g
  ALP: 887.8 IU/L
  ALT: 33 IU/L
  AST: 66.4 IU/L
  BUN: 21.2 mg/dL
  CRE: 0.5 mg/dL
  Ca: 10.9 mg/dL
  DBIL: 0.022 mg/dL
  GLC: 195.6 mg/dL
  IP: 8.4 mg/dL
  K: 4.9 meq/L
  LDH: 88 IU/L
  Na: 139.2 meq/L
  PL: 175 mg/dL
  RALB: 4 g/dL
  TBIL: 0.3 mg/dL
  TC: 89 mg/dL
  TG: 128 mg/dL
  TP: 6.1 g/dL
  gamma-GTP: 2.2 IU/L
[8]
  TERMINAL_BW: 387.5 g
  APTT: 17.3 s
  Bas: 0%
  Eos: 1%
  Fbg: 233.2 mg/dL
  Hb: 14.7 g/dL
  Ht: 44.2%
  Lym: 85.2%
  MCH: 19.8 pg
  MCHC: 33.4%
  MCV: 59.3 fL
  Mono: 4.4%
  Neu: 9.4%
  PT: 11.4 s
  Plat: 105.1 x10_4/uL
  RBC: 746.2 x10_4/ul
  Ret: 3%
  WBC: 131.4 x10_2/uL
  KIDNEY_L: 1.4 g
  KIDNEY_R: 1.4 g
  KIDNEY_TOTAL: 2.8 g
  LIVER: 15.3 g
  ALP: 630 IU/L
  ALT: 29 IU/L
  AST: 54.2 IU/L
  BUN: 17.8 mg/dL
  CRE: 0.4 mg/dL
  Ca: 11 mg/dL
  DBIL: 0.024 mg/dL
  GLC: 185.4 mg/dL
  IP: 7.5 mg/dL
  K: 4.6 meq/L
  LDH: 75.6 IU/L
  Na: 140 meq/L
  PL: 141.6 mg/dL
  RALB: 4 g/dL
  TBIL: 0.3 mg/dL
  TC: 72.8 mg/dL
  TG: 108.8 mg/dL
  TP: 6.4 g/dL
  gamma-GTP: 1.4 IU/L
300 mg/kg, 72 h, dose level Middle, time 3 day
  TERMINAL_BW: 198.3 g
